Measurements published in patent publication US20130225684A1, “METHODS AND COMPOSITIONS FOR ENHANCEMENT OF VISION PERFORMANCE” (KYOWA HAKKO BIO CO., LTD., priority 2012, published 2013).
“Also recorded” adds a separate entry of the source. Where a SMILES comes first, the peptide text is derived from it.

Assays:
[1] = hand-eye reaction time on the Dynavison D2 after a 40 minute basketball game; assay type: in vivo, women (basketball players); details: for Visual reaction time: FIG. 2
Description: The purpose of this study was to examine the efficacy of L-alanyl-Lglutamine (AG) ingestion on sports vision, including reaction time. Ten women (21.2±1.6 years; height: 177.8±8.7 cm; body mass:73.5±8.0 kg), all basketball players, volunteered for this study. The study required subjects to first participate in a 40 minute basketball game. During one trial, subjects consumed only water (W), while during the other two trials subjects consumed the AG supplement marketed as Sustamine mixed in water using either a low dose (1 g per 500 ml) (AG1) or high dose (2 g per 500 ml) (AG2) concentration. Other subjects where not allowed to consume water or AG. (DHY) Measurement of hand-eye reaction time was performed on the Dynavison D2 (Dynavision, Ontario Canada). Subjects were required to assume a comfortable athletic stance and stand at a distance from the board where they could easily reach all of the lights. The board height was adjusted so the LCD screen was located just below eye level. Participants were told to fixate their gaze on the LCD screen in the middle of the board and to keep their focus there for the entirety of the experiment. During the assessment each subject pressed a light with their dominant side index finger on the board. When a second light flashed (on the same line of the initial light, but on the non-dominant side of their body), the subject removed their finger and pressed the new visual stimulus. The time necessary to recognize the new stimulus (new light lit until finger lifted from initial light) was recorded as visual reaction time, and the time it took for the subject to move and press the newly lit light was recorded as the motor reaction time. The total time for both visual reaction and motor reaction was calculated as the physical reaction time. A total of eight attempts were performed. The average time for all eight attempts was recorded.

[2] = alanylglutamine compared to glutamine; cited from earlier work
[3] = into alanine and glutamine; cited from earlier work
[4] = alanylglutamine compared to glutamine; cited from earlier work; remark: listed apart in the source

## C[C@H](N)C(=O)N[C@@H](CCC(N)=O)C(=O)O [AG, L-alanyl-Lglutamine] (H-Ala-Gln-OH)
[1]; AG1: low dose (1 g per 500 ml) in water, compared to DHY (no water and no AG), p=0.014
  Visual reaction time: significantly better; also recorded: enhanced visual reaction time
[1]; AG1: low dose (1 g per 500 ml) in water, compared to DHY, p=0.032
  change in the physical reaction time (combined visual and motor differences): significantly greater
[1]; AG2: high dose (2 g per 500 ml) in water, compared to DHY, p=0.018
  Visual reaction time: trend toward a similar response
[1]; between trials (AG1, AG2, W, DHY), FIG. 3
  motor response (motor reaction time): no significant differences
[2]
  solubility in aqueous solutions: superior
[3]
  degradation in the body: immediately degraded
[4]
  heat stability: superior

## NC(=O)CC[C@H](N)C(=O)O [glutamine, reference compound]
[2]
  solubility in aqueous solutions: low-solubility
